Source: patent publication US12653832B2, “Methods for treating lung infections and inflammation” (BRIGHAM YOUNG UNIVERSITY, priority 2013, dated 2026)
≈ marks a conversion by molar mass, not a printed value.

What was measured:
P. aeruginosa = assay: Drug combinations of CSAs and anti-pathogenic substances (synergy); type: cell-based
Experimental: Following the protocols outlined in Appl. Microbiol. Biotechnol., 2010 (September) pp. 251-63 and Chemotherapy, 2011 (November), Vol. 57, pp. 505-10, drug combinations involving CSAs and anti-pathogenic substances are performed.

Pseudomonas aeruginosa = assay: Assessment of bacterial resistance by serial exposure, MIC; type: cell-based; conditions: serial passages (FIG. 2)
Excerpt: (§1) A central consideration in the development of novel antimicrobials is potential generation of bacterial resistance. […] See Pollard J E, et al. J. Antimicrob. Chemother. 2012, 67, 2665-2672 (describing experimental protocol).

Staphylococcus aureus = assay: as above; type: cell-based; conditions: after 30 serial passages
Excerpt: as §1

[1] = test system: tobramycin-resistant P. aeruginosa strains; assay: MIC against tobramycin resistant strains (cross-resistance); type: cell-based; conditions: seven tobramycin resistant P. aeruginosa strains (FIG. 3)
Excerpt: Tobramycin is commonly used in reducing the bacterial burden in the lungs of cystic fibrosis patients. However, resistance to tobramycin is often observed among P. aeruginosa isolates. Tobramycin resistance is typically achieved by acylation or phosphorylation of the primary amine groups in the antibiotic.
Similar studies can be conducted for other drug-resistant pathogenic strains following this standard experimental protocol.

P. aeruginosa (PAO1) [2] = assay: MIC against infection-model strain; type: cell-based
P. aeruginosa (PAO1) [3] = assay: Animal model of lung infection, bacterial counts in lung tissue; type: in vivo, mice; conditions: for elimination of the bacterial burden: 80 mg/kg via nebulization; for reduction in bacterial burden: 80 mg/kg via nebulization four hours after infection
Experimental: In vivo studies were designed to allow observation of both tolerance for CSAs and effectiveness of the antimicrobial in reducing bacterial burden. An infection model was used in which mice were inoculated with P. aeruginosa (PAO1) intra-nasally (10^5 CFU) to establish an infection. […] Two doses were used: 40 and 80 mg/kg. […] After 24 h, the mice were euthanized, and lung tissues were homogenized. Bacterial counts were determined by serial dilution, plating on nutrient agar, incubation, and colony counting. As a comparator, tobramycin was administered via the same route, and P. aeruginosa counts were determined.
(§2) IL-6 was measured from kidney tissue specimens.

IL-6 = IL-6 levels in murine pneumonia model; type: in vivo, mice; conditions: inhaled, 40 and 80 mg/kg; IL-6 measured from kidney tissue specimens (FIG. 5)
Experimental: as §2

[4] = test system: inflammatory cells around bronchioles in lungs; assay: Murine lung histology in pneumonia model; type: in vivo, mice; conditions: 4 hours post challenge with Pseudomonas PA01
Experimental: In this experiment, mice were infected with 10^8 PA01 strain of Pseudomonas, representing a murine pneumonia model. […] The CSA treatment was administered 4 hours post challenge with Pseudomonas.

Row | Compound | reduction of the MIC of erythromycin (P. aeruginosa; CSA-13 administered with erythromycin) [%] | MIC at which the rise appeared to level off (Pseudomonas aeruginosa) [µg/mL] | change in Minimum Inhibitory Concentration (MIC) (Staphylococcus aureus) | susceptibility of tobramycin resistant strains [1] | synergy (P. aeruginosa; combined with ciprofloxaxin) | synergy (P. aeruginosa; combined with tobramycin) | synergistic result (P. aeruginosa; in combination with colistin, against P. aeruginosa) [%] | MIC (P. aeruginosa (PAO1) [2]) [µg/mL] | drop in bacterial counts (P. aeruginosa (PAO1) [3]; 40 mg/kg via nebulization four hours after infection, lung counts after 24 h) | elimination of the bacterial burden (P. aeruginosa (PAO1) [3]) [%] | reduction in bacterial burden (P. aeruginosa (PAO1) [3]; lung counts after 24 h) | Pseudomonas load (P. aeruginosa (PAO1) [3]; inhaled, 40 and 80 mg/kg, murine pneumonia model (FIG. 5)) | IL-6 levels (IL-6) | inflammatory cells in lung histology ([4]; 40 mg/kg dose) | inflammatory cells in lung histology ([4]; 80 mg/kg dose)
1 | CC[C@H]1OC(=O)[C@H](C)[C@@H](O[C@H]2C[C@@](C)(OC)[C@@H](O)[C@H](C)O2)[C@H](C)[C@@H](O[C@@H]2O[C@H](C)C[C@H](N(C)C)[C@H]2O)[C@](C)(O)C[C@@H](C)C(=O)[C@H](C)[C@@H](O)[C@]1(C)O [erythromycin, reference compound] | 92 | – | – | – | – | – | – | – | – | – | – | – | – | – | –
2 | CCCCCCCCNCCC[C@@H](C)[C@H]1CC[C@H]2[C@@H]3[C@H](OCCCN)C[C@@H]4C[C@H](OCCCN)CC[C@]4(C)[C@H]3C[C@H](OCCCN)[C@]12C [CSA-13] | – | ~20 (≈ 29.5 µM) | no significant change | all strains were comparably susceptible | Additional synergies were observed | Additional synergies were observed | 54 | 2.5 (≈ 3.69 µM) | two | 99.99 | greater than four | reduced | reduced | substantial reduction of inflammatory cells | even greater reduction in inflammatory cells
3 | NC[C@H]1O[C@H](O[C@H]2[C@H](O)[C@@H](O[C@H]3O[C@H](CO)[C@@H](O)[C@H](N)[C@H]3O)[C@H](N)C[C@@H]2N)[C@H](N)C[C@@H]1O [tobramycin, reference compound] | – | – | – | varied significantly | – | – | – | – | – | 99.99 | greater than four | – | – | – | –
